Assay results: ChEMBL document CHEMBL1944554, “Structure-activity relationships for the interaction of 5,10-dihydroindeno[1,2-b]indole derivatives with human and bovine carbonic anhydrase isoforms I, II, III, IV and VI” (Eur J Med Chem, 2012)

Legend:
Carbonic anhydrase 3 = target: T1, Carbonic anhydrase 3 (Bos taurus, UniProt Q3SZX4); experiment: Inhibition of bovine carbonic anhydrase 3 using 4-nitrophenylacetate as substrate after 3 mins using spectrophotometry by Lineweaver-Burk plot analysis
T1 sequence (Q3SZX4 whole entry): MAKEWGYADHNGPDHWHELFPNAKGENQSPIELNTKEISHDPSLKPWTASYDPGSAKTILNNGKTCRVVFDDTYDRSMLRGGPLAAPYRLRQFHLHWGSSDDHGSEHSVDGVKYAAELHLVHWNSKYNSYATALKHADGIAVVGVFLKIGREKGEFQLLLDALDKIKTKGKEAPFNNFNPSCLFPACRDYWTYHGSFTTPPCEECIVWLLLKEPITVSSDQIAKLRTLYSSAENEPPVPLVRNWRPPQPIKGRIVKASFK

Carbonic anhydrase 1 = Carbonic anhydrase 1 (Homo sapiens, UniProt P00915); experiment: Inhibition of human carbonic anhydrase 1 using 4-nitrophenylacetate as substrate after 3 mins using spectrophotometry by Lineweaver-Burk plot analysis
Carbonic anhydrase 2 = Carbonic anhydrase 2 (Homo sapiens, UniProt P00918); experiment: Inhibition of human carbonic anhydrase 2 using 4-nitrophenylacetate as substrate after 3 mins using spectrophotometry by Lineweaver-Burk plot analysis
Carbonic anhydrase 4 = Carbonic anhydrase 4 (Homo sapiens, UniProt P22748); experiment: Inhibition of human carbonic anhydrase 4 using 4-nitrophenylacetate as substrate after 3 mins using spectrophotometry by Lineweaver-Burk plot analysis
Carbonic anhydrase 6 = Carbonic anhydrase 6 (Homo sapiens, UniProt P23280); experiment: Inhibition of human carbonic anhydrase 6 using 4-nitrophenylacetate as substrate after 3 mins using spectrophotometry by Lineweaver-Burk plot analysis
Carbonic anhydrase 6, sequence (P23280 whole entry): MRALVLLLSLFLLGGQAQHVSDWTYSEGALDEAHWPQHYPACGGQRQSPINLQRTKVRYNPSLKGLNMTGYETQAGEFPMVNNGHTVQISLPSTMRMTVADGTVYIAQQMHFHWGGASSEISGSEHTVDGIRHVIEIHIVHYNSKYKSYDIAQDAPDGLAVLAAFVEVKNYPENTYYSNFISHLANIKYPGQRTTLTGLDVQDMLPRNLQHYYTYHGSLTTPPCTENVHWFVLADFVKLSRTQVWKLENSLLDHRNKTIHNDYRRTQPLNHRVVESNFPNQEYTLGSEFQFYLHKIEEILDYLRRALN

Carbonic anhydrase 4, sequence (P22748 whole entry): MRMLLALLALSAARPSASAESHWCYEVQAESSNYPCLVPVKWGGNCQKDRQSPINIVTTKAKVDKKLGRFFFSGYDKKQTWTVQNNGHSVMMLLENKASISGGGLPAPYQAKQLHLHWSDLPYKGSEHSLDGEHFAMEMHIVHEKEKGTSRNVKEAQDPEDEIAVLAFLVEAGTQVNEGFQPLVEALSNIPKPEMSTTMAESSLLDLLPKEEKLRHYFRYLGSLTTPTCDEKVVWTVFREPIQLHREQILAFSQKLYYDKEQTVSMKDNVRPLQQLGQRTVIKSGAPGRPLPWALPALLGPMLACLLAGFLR
Carbonic anhydrase 1, sequence (P00915 whole entry): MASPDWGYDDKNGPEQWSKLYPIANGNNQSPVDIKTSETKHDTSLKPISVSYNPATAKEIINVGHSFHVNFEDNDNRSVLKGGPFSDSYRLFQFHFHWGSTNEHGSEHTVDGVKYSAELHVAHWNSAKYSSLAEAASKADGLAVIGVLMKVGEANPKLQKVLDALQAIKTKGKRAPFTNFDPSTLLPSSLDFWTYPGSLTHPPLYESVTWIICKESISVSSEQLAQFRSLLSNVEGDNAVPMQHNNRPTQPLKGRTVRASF

Compound	Ki (Carbonic anhydrase 3) [µM]	other results
Oc1cc2c(cc1O)-c1[nH]c3ccccc3c1C2	5.17	–
CCOc1ccc2nc(S(N)(=O)=O)sc2c1 [ETHOXZOLAMIDE]	9.44	–
Oc1ccc2c(c1)Cc1c-2[nH]c2ccccc12	9.08	–
c1ccc2[nH]ccc2c1 [INDOLE]	17.6	Ki (Carbonic anhydrase 1): 27.4 µM; Ki (Carbonic anhydrase 2): 32.5 µM; Ki (Carbonic anhydrase 4): 2.33 µM; Ki (Carbonic anhydrase 6): 3.63 µM
COc1ccccc1OC [1,2-DIMETHOXYBENZENE]	4.24	–
Oc1ccc2c(c1)-c1[nH]c3ccccc3c1C2	9.42	–
C[C@]12CC[C@@H]3c4ccc(OS(N)(=O)=O)cc4CC[C@H]3[C@@H]1CCC2=O [EMATE]	12.4	Ki (Carbonic anhydrase 1): 12.3 µM; Ki (Carbonic anhydrase 4): 1.04 µM; Ki (Carbonic anhydrase 6): 1.86 µM
COc1cccc2c1Cc1c-2[nH]c2ccccc12	16.3	–
c1ccc2c(c1)Cc1c-2[nH]c2ccccc12	17.8	–
Fc1ccc2c(c1)Cc1c-2[nH]c2ccccc12	8.63	–
COc1ccc2c(c1)-c1[nH]c3ccccc3c1C2	15.6	–
Oc1ccccc1O [CATECHOL]	3.48	–
Oc1cc(O)c2c(c1)Cc1c-2[nH]c2ccccc12	4.63	–
Oc1cccc2c1-c1[nH]c3ccccc3c1C2	9.62	–
Brc1ccc2c(c1)Cc1c-2[nH]c2ccccc12	8.51	–
Oc1ccc(O)c2c1Cc1c-2[nH]c2ccccc12	4.34	–

Now from value to compound, other results behind:

Ki (Carbonic anhydrase 3) [µM]	Compound	other results
8.72	Clc1ccc2c(c1)Cc1c-2[nH]c2ccccc12	–
8.51	NS(=O)(=O)Cc1noc2ccccc12 [ZONISAMIDE]	–
2.13	Oc1ccc2c(c1O)Cc1c-2[nH]c2ccccc12	–
14.9	COc1ccc2c(c1)Cc1c-2[nH]c2ccccc12	–
12.7	c1ccc2c3c([nH]c2c1)-c1cc2c(cc1C3)OCO2	–
15.8	COc1cc2c(cc1OC)-c1[nH]c3ccccc3c1C2	–
14.3	COc1cc2c(c(OC)c1)-c1[nH]c3ccccc3c1C2	–
8.84	Oc1cccc2c1Cc1c-2[nH]c2ccccc12	–
11.2	COc1ccc(OC)c2c1Cc1c-2[nH]c2ccccc12	–
10.3	COc1ccc2c(c1OC)Cc1c-2[nH]c2ccccc12	–
